Assay results: PMC11434980, “Deciphering Chemical Rules for Drug Penetration into Strongyloides” (Pharmaceutics, 2024)
Entries after “also recorded” stand apart in the source; their conditions may differ. Like-named read-outs stand apart in the source and are kept apart here.

Assays:
[1] = tested on: parasitic females of S. venezuelensis; assay: In vitro activity against adult females (movement categories); format: cell-based, Strongyloides venezuelensis; conditions: for Activity against Adults @10 µM 72 h: adult females; for effect on adult females / Activity against parasitic females 1 h / Activity against parasitic females 24 h / Activity against parasitic females 48 h / Activity against parasitic females 72 h: 10 µM, 50–70 worms per well
Protocol: Seven to nine days after infection, the mice or rats were euthanized and the small intestine was removed, sliced longitudinally, minced, and placed in a sedimentation cup wrapped in 8 layers of gauze in phosphate-buffered solution (PBS) for two hours at 37 °C. Parasitic females were collected from the sediment and washed twice with saline solution (NaCl 0.15 mol/L) and twice with Roswell Park Memorial Institute 1640 (RPMI 1640) (Gibco, Whaltman, MA, USA) supplemented with 10% heat-inactivated FBS, 100 µg/mL streptomycin, and 100 U/mL penicillin (Gibco, Whaltman, MA, USA) to avoid contamination during the in vitro assays. After collection, females were placed in 96-well plates with supplemented RPMI medium and kept at 37 °C. We tested three different female population densities to explore the effects on the measured activity: 1–3 females, 10–15 females, and 50–70 females per well. At 24 h after plating, the compounds were applied at 10 µM and the anti-parasitic activity was evaluated at 1, 24, 48, and 72 h after treatment based on movement for 30 s observation periods under the microscope (40×). […] All experiments were conducted in duplicate and at least three different times. […]

S. venezuelensis L3s [2] = assay: microbe, parasite or virus in culture; conditions: for significant activity against the L3s: L3 motility, 72 h of treatment
Protocol: (§1) Baerman-obtained S. venezuelensis L3s were rinsed twice with distilled water and counted, and 100 to 150 larvae were placed per well in 96-well flat-bottom culture plates. Larvae were incubated at 28 °C for 30 min to allow adaptation and treated with compounds in the range of 0.5–40 µM for 72 h at 28 °C in a humid atmosphere. Mortality was assessed as the lack of any movement detected during 1 min of observation under an inverted microscope (40×), at 24, 48, and 72 h after treatment. The ability to stain the larvae was pointed out when observed; at 72 h, larvae were collected and washed two times with distilled water and placed in a new well to remove the background color and photographed. Pictures were also taken at 24 and 48 h without cleaning the larvae so as not to interfere with the 72 h readout of the experiment. […] All experiments were conducted in triplicate and at least three different times. The antiparasitic activity of the compounds was expressed as the concentration that inhibited the motility of half of the larvae (immobilization concentration 50, IC50).
A total of 15 dyes were tested against S. venezuelensis L3s at a 20 µM concentration. The activity was determined by the number of larvae lacking motility relative to the total number in the well after 1 min of light excitation at 24, 48, and 72 h after treatment.

[3] = tested on: HeLa (human cervical cancer) cell line; assay: Cytotoxicity, MTT method; format: cell-based; conditions: MTT; for IC50: HeLa cells, 72 h, read-out: HeLa IC50 (antiproliferative activity / cytotoxicity)
Protocol: (§2) A cytotoxicity test was performed using the HeLa (human cervical cancer) cell line according to the MTT method. Cells were from the ATCC (Manassas, VA, USA). They were cultured at 37 °C in sub-confluent conditions under a 95% humidified atmosphere and 5% CO2 in Dulbecco’s Modified Eagle Medium (DMEM) (Gibco, Whaltman, MA, USA) supplemented with 10% heat-inactivated FBS, 2 mM L-glutamine, 100 U/mL penicillin, and 100 µg/mL streptomycin. […] The antiproliferative activity was measured in triplicate after 72 h using the MTT (3-(4,5-dimethylthiazol-2-yl)-2,5-diphenyltetrazolium bromide) Cell Proliferation Kit (Roche, Boston, MA, USA), following the manufacturer’s specifications. […] The selectivity index (SI = HeLa IC50/L3 IC50) for each compound was calculated to compare the antiparasitic activity with its respective human cell cytotoxicity.

S. venezuelensis L3s [4] = assay: Staining (uptake) of L3 larvae by the dyes; format: cell-based, Strongyloides venezuelensis; conditions: for lowest staining concentration (Conc): 72 h
Protocol: as §1

Cytotoxicity, MTT method = format: cell-based, human; conditions: human; HeLa cells, 72 h, MTT; read-out: HeLa IC50 (antiproliferative activity / cytotoxicity)
Protocol: as §2

[5] = tested on: parasitic females of S. venezuelensis; assay: Staining of adult females by the dyes; format: cell-based, Strongyloides venezuelensis; conditions: 10 µM; for Staining (Time): time at which staining of females was seen
[6] = L3S, 72 h, read-out: IC50 72 h (L3)
[7] = read-out: IC50 72 h (immobilization concentration 50 of cultured L3s), L3s, 72 h
[8] = read-out: IC50 24 h (immobilization concentration 50 of cultured L3s), L3s, 24 h
[9] = read-out: IC50 48 h (immobilization concentration 50 of cultured L3s), L3s, 48 h

## Cc1ccc2nc(NC(=O)c3cccnc3)sc2c1 [Compound 20, N-(6-methylbenzo[d]thiazol-2-yl)nicotinamide]
[1]
  Activity against Adults @10 µM 72 h: did not show any potency; also recorded: Healthy
S. venezuelensis L3s [2]; [6]
  IC50: > 20 µM
S. venezuelensis L3s [2]; L3s, 72 h
  Activity against L3 @20 µM 72 h: did not show any activity and no in vitro activity and No
[3]
  antiproliferative activity against HeLa cells at 10 µM: no antiproliferative activity

## Cc1cc(-c2ccc(/N=N/c3c(S(=O)(=O)O)cc4cc(S(=O)(=O)O)cc(N)c4c3O)c(C)c2)ccc1/N=N/c1c(S(=O)(=O)O)cc2cc(S(=O)(=O)O)cc(N)c2c1O [Trypan Blue]
S. venezuelensis L3s [2]
  significant activity against the L3s: did not show significant activity
S. venezuelensis L3s [4]
  Staining 72 h (L3 staining ability): Yes
  lowest staining concentration (Conc): 20 µM
Cytotoxicity, MTT method
  IC50 at 72 h: > 10 µM

## Oc1ccc2ccccc2c1N=Nc1ccc(N=Nc2ccccc2)cc1 [Sudan III]
S. venezuelensis L3s [2]
  significant activity against the L3s: did not show significant activity
S. venezuelensis L3s [2]; L3s, 72 h
  Screening 20 µM 72 h: No
S. venezuelensis L3s [2]; [7]
  IC50: > 40 µM
S. venezuelensis L3s [4]
  Staining 72 h (L3 staining ability): No

## CC[N+](C)(CC)CCC[n+]1c(-c2ccccc2)c2cc(N)ccc2c2ccc(N)cc21.[I-].[I-] [Propidium Iodide]
[1]
  effect on adult females: significantly affected
  Activity against parasitic females 1 h: Slightly affected
  Activity against parasitic females 24 h: Slightly affected
  Activity against parasitic females 48 h: Slightly affected
  Activity against parasitic females 72 h: Affected/Some deaths
S. venezuelensis L3s [2]; L3s, 72 h
  Screening 20 µM 72 h: Active
S. venezuelensis L3s [2]; [8]
  IC50: 14.5 ± 4.6 µM
S. venezuelensis L3s [2]; [9]
  IC50: 9.8 ± 3.2 µM
S. venezuelensis L3s [2]; [7]
  IC50: 4.3 ± 0.6 µM
[5]
  Staining of parasitic females: Yes
  staining of adult females: living worms were not strongly stained
  Staining (Time): 72 h
S. venezuelensis L3s [4]
  Staining 72 h (L3 staining ability): Yes
  lowest staining concentration (Conc): 3 µM

## Nc1c(/N=N/c2ccc(-c3ccc(/N=N/c4cc(S(=O)(=O)O)c5ccccc5c4N)cc3)cc2)cc(S(=O)(=O)O)c2ccccc12 [Congo Red]
S. venezuelensis L3s [2]
  significant activity against the L3s: did not show significant activity
S. venezuelensis L3s [2]; L3s, 72 h
  Screening 20 µM 72 h: No
S. venezuelensis L3s [4]
  Staining 72 h (L3 staining ability): No

## Cc1ccc2nc(NC(=O)c3ccc(N4CCN(C)CC4)nc3)sc2c1 [Compound 22, N-(6-methylbenzo[d]thiazol-2-yl)-6-(4-methylpiperazin-1-yl)nicotinamide]
[1]
  Activity against Adults @10 µM 72 h: slightly affecting but not killing; also recorded: Slightly affected
S. venezuelensis L3s [2]; [6]
  IC50: 8.6 ± 2.3 µM
S. venezuelensis L3s [2]; L3S, 72 h, read-out: L3 mortality rate
  mortality at 20 µM: 100%
S. venezuelensis L3s [2]; L3s, 72 h
  Activity against L3 @20 µM 72 h: Yes
[3]
  antiproliferative activity against HeLa cells at 10 µM: no antiproliferative activity

## CN(C)c1ccc(N=Nc2ccc(S(=O)(=O)[O-])cc2)cc1.[Na+] [Methyl Orange]
S. venezuelensis L3s [2]
  significant activity against the L3s: did not show significant activity
S. venezuelensis L3s [2]; L3s, 72 h
  Screening 20 µM 72 h: No
S. venezuelensis L3s [2]; [7]
  IC50: > 40 µM
S. venezuelensis L3s [4]
  Staining 72 h (L3 staining ability): No

## Cc1c(C(=O)O)c(O)cc2c1C(=O)c1c(O)c(C3O[C@H](CO)[C@@H](O)[C@H](O)[C@H]3O)c(O)c(O)c1C2=O (stereo in doubt) [Carmine]
S. venezuelensis L3s [2]
  significant activity against the L3s: did not show significant activity
S. venezuelensis L3s [2]; L3s, 72 h
  Screening 20 µM 72 h: No
S. venezuelensis L3s [4]
  Staining 72 h (L3 staining ability): No

## Cc1cc(C(=C2C=CC(=N)C=C2)c2ccc(N)cc2)ccc1N [Fuchsine]
[1]
  Activity against parasitic females 1 h: Healthy
  Activity against parasitic females 24 h: Healthy
  Activity against parasitic females 48 h: Healthy
  Activity against parasitic females 72 h: Healthy
S. venezuelensis L3s [2]; L3s, 72 h
  Screening 20 µM 72 h: Active
S. venezuelensis L3s [2]; [8]
  IC50: 7.4 ± 1.3 µM
S. venezuelensis L3s [2]; [9]
  IC50: 6.8 ± 0.9 µM
S. venezuelensis L3s [2]; [7]
  IC50: 3.2 ± 0.4 µM
[5]
  Staining of parasitic females: No
  staining of adult females: did not stain
S. venezuelensis L3s [4]
  Staining 72 h (L3 staining ability): Yes
  lowest staining concentration (Conc): 2 µM
[3]
  IC50: 1 µM

## Oc1cc2c(cc1O)[C@@H]1c3ccc(O)c(O)c3OC[C@]1(O)C2 [Hematoxylin]
S. venezuelensis L3s [2]
  significant activity against the L3s: did not show significant activity
S. venezuelensis L3s [2]; L3s, 72 h
  Screening 20 µM 72 h: No
S. venezuelensis L3s [4]
  Staining 72 h (L3 staining ability): No

## O=[N+]([O-])c1ccc2c(N=Nc3ccc4ccccc4c3O)c(O)cc(S(=O)(=O)[O-])c2c1.[Na+] [Eriochrome Black T]
S. venezuelensis L3s [2]
  significant activity against the L3s: did not show significant activity
S. venezuelensis L3s [2]; L3s, 72 h
  Screening 20 µM 72 h: No
S. venezuelensis L3s [2]; [7]
  IC50: > 40 µM
S. venezuelensis L3s [4]
  Staining 72 h (L3 staining ability): No

## Brilliant Cresyl Blue
[1]
  effect on adult females: significantly affected
  Activity against parasitic females 1 h: Healthy
  Activity against parasitic females 24 h: Slightly affected
  Activity against parasitic females 48 h: Affected
  Activity against parasitic females 72 h: Affected
S. venezuelensis L3s [2]; L3s, 72 h
  Screening 20 µM 72 h: Active
S. venezuelensis L3s [2]; [8]
  IC50: 14 ± 4.1 µM
S. venezuelensis L3s [2]; [9]
  IC50: 9.6 ± 0.6 µM
S. venezuelensis L3s [2]; [7]
  IC50: 6.8 ± 0.7 µM
[5]
  Staining of parasitic females: Yes
  staining of adult females: stained adult females after 24 h in some localized structures
  Staining (Time): 24 h
S. venezuelensis L3s [4]
  Staining 72 h (L3 staining ability): Yes
  lowest staining concentration (Conc): 2.5 µM
[3]
  IC50: > 250 µM

## CC(=O)Oc1ccc2c(c1)Oc1cc(OC(C)=O)ccc1C21OC(=O)c2ccccc21 [Fluorescein Diacetate]
S. venezuelensis L3s [2]
  significant activity against the L3s: did not show significant activity
S. venezuelensis L3s [2]; L3s, 72 h
  Screening 20 µM 72 h: No
S. venezuelensis L3s [4]
  Staining 72 h (L3 staining ability): No

## O=C1/C(=C2\Nc3ccc(S(=O)(=O)[O-])cc3C2=O)Nc2ccc(S(=O)(=O)[O-])cc21.[Na+].[Na+] [Indigo Carmine]
S. venezuelensis L3s [2]
  significant activity against the L3s: did not show significant activity
S. venezuelensis L3s [2]; L3s, 72 h
  Screening 20 µM 72 h: No
S. venezuelensis L3s [2]; [7]
  IC50: > 40 µM
S. venezuelensis L3s [4]
  Staining 72 h (L3 staining ability): No

## CCCCCCCCCCCCCCCCCCOCC(COP(=O)([O-])OCC[N+](C)(C)C)OC (stereo not drawn) [Edelfosine]
S. venezuelensis L3s [2]; L3s, 72 h
  Screening 20 µM 72 h: No
